Test results from US20240287042A1, “NOVEL COMPOUND HAVING INHIBITORY ACTIVITY AGAINST PENDRIN, AND PHARMACEUTICAL USES THEREOF” (UIF (University Industry Foundation), Yonsei University, priority 2021, published 2024).

How the values were obtained:
human WT ANO1 = target: T1, human WT ANO1 (Homo sapiens, UniProt Q5XXA6); experiment: ANO1 I− transport activity, YFP fluorescence in FRT cells, ATP-activated; format: cell-based
T1 construct: expressed in transfected cells
T1 sequence (Q5XXA6 1-986): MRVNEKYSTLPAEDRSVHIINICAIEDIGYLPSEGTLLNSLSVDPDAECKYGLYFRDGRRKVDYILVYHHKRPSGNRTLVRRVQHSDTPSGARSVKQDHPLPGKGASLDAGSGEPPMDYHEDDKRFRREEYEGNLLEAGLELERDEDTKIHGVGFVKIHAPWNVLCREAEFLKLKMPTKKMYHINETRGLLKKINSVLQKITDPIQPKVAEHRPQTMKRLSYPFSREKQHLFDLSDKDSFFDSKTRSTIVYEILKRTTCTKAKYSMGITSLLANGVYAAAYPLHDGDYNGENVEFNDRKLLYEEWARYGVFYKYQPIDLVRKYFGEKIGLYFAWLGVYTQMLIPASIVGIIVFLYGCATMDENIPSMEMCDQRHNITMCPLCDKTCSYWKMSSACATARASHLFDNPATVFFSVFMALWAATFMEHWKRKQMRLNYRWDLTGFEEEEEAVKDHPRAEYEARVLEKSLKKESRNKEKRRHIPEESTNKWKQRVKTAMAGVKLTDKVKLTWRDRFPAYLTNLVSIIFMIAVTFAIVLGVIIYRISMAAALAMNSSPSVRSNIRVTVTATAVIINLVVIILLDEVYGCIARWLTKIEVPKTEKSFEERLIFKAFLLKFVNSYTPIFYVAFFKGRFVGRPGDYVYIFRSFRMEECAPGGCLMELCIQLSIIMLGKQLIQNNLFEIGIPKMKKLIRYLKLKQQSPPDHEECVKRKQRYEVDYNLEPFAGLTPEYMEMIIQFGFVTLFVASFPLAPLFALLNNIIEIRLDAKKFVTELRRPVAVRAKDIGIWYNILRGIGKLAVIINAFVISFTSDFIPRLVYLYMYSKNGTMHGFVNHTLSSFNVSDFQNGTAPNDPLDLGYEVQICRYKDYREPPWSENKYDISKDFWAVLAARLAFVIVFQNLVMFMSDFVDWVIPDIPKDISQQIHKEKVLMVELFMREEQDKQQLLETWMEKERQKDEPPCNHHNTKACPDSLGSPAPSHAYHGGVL
Procedure: Chinese hamster ovary (CHO)-K1 cells or LN-215 cells were cultured in DMEM medium containing 10% fetal bovine serum (FBS), 100 units/ml of penicillin and 100 μg/ml streptomycin. CHO-K1 cells or LN-215 cells were stably transfected with pcDNA3.1 encoding the halide sensor YFP-H148Q/I152L/F46L and human wild-type (WT)-SLC26A9. Fisher rat thyroid (FRT) cells stably transfected with YFP-H148Q/I152L/F46L and human wild type (WT)-CFTR or human wild type (WT)-ANO1 were cultured in DMEM/F-12 medium containing 10% fetal bovine serum (FBS), 100 units/ml of penicillin, and 100 μg/ml of streptomycin.
LN-215 cells expressing human WT SLC26A9 and YFP-F46L/H148Q/I152L, and FRT cells expressing human WT CFTR or ANO1 and YFP-F46L/H148Q/I152L were plated in 96-well microplates at a density of 2×10^4 cells per well, and cultured for 48 hours. […] After culturing at 37° C. for 10 minutes, the 96-well plate was located on the FLUOstar Omega Microplate Reader (BMG Labtech, Ortenberg, Germany) for a fluorescence assay. For assay of the activity of […], fluorescence was recorded continuously (400 ms per point) for 1 second (baseline), whereby each well was assayed individually for SLC26A9-mediated I-influx. Then, 50 μL of NaI-substituted HEPES buffered solution (replacing NaCl with NaI) was added using a liquid injector at 1 second, and YFP fluorescence was recorded for 6 seconds. […]

[1] = test system: Adriamycin-induced heart failure mouse model; experiment: Diuretic effect in Adriamycin-induced heart failure mouse model; format: in vivo, C57BL/6N mice; conditions: heart failure mice
Procedure: Wild-type male C57BL/6N mice aged 8 weeks and weighing 20-24 g were purchased from Orient Bio (Seongnam, South Korea). Cardiac ultrasound imaging was performed before administration of Adriamycin. […] Five weeks later, cardiac ultrasound imaging was performed to confirm whether heart failure had been induced.
A 100 mg/ml stock concentration of YPI-A4948 dissolved in DMSO was prepared to have final concentrations of 0.1 mg/kg/100 ul, 0.5 mg/kg/100 ul and 1 mg/kg/100 ul (1% DMSO+DW), respectively. Heart failure mice were placed in mouse metabolic cages, and water and food were restricted. Before administering YPI-A4948, the bladder of the mouse was stimulated, and YPI-A4948 was injected intraperitoneally alone for two times in total, once every 3 hours for 6 hours. In other groups, it was administered with furosemide at 0.5 mg/kg and 1 mg/kg, respectively, in order to confirm the co-administration effect with other diuretics. Urine was collected from each group of mice after 6 hours.

Structure (SMILES)	Effect on ANO1 activity (human WT ANO1; 30 μM)	Diuretic effect, co-administered with furosemide ([1]; 0.5 mg/kg YPI-A4948 and 1.0 mg/kg furosemide)	Diuretic effect, administered alone ([1]; 1 mg/kg i.p. twice in 6 hours)	inhibition at 30 µM (human WT ANO1; FIG. 3)
Cc1ccc2[nH]c(C(=O)O)c(CC(=O)N3CCN(c4c(C)cccc4Cl)CC3)c2c1 [YPI-A4948, 3-(2-(4-(2-Chloro-6-methylphenyl)piperazin-1-yl)-2-oxoethyl)-5-methyl-1H-indole-2-carboxylic acid]	weakly inhibited	additive effect	showed a diuretic effect	–
Cc1ccc(C)c(N2CCN(C(=O)Cc3c(C(=O)O)[nH]c4ccc(Cl)cc34)CC2)c1 [YPI-H05, 5-chloro-3-(2-(4-(2,5-dimethylphenyl)piperazin-1-yl-)-2-oxoethyl)-1H-indole-2-carboxylic acid]	–	–	–	~80%
